Test results from patent US20140011889A1, “Resveratrol-Containing Compositions and Methods of Use for Cardiac-Related Diseases” (Resveratrol Partners, LLC, priority 2010, published 2014).

Assays:
IR rat heart = assay: Isolated working rat heart I/R: cardiac function, infarct size, apoptosis (Example 7); assay type: in vivo, Sprague-Dawley rats; details: resveratrol 5 mg/kg/day or Longevinex 100 mg/kg/day, 21 days
Method: Methods. Animals. […] Hattori et al., Am. J. Physiol. Heart. Circ. […] Mukherjee et al., Can. J. Pharmol. […] Isolated working heart preparation and assessment of cardiac function. After completing the feeding protocol, the animals were anesthetized with sodium pentobarbital (80 mg/kg, i.p.) (Abbott Laboratories, North Chicago, Ill., USA), and […] heparin sodium (500 IU/kg, i.v.) (Elkins-Sinn Inc., Cherry Hill, N.J., USA) was used as an anticoagulant. […] At the end of 10 min, baseline cardiac function like heart rate (HR, beats/min), aortic flow (AF, ml/min), coronary flow (CF, ml/min), left ventricular developed pressure (LVDP, mmHg) and first derivative of developed pressure (LVdp/dt, mmHg/sec) were recorded. […] Infarct size was measured according to the TTC method. […] To quantitate the areas of infarct in pixels, standard NIH image program was used. The infarct size was quantified and expressed in pixels. […] The fluorescence staining was viewed with a fluorescence microscope (AXIOPLAN2 IMAGING, Carl Zeiss Microimaging Inc., New York) at […] for green fluorescence of fluorescein and at 620 nm for red fluorescence of propidium iodide. The number of apoptotic cells was counted and expressed as a percent of total myocyte population.

brain tissue = assay: Gene expression in brain tissue; assay type: in vivo, mice; details: mouse brain tissue
Source text: Similar effects have been observed in non-heart tissue.

cardiomyocytes = assay: Cardiomyocyte apoptosis, TUNEL (Example 6); assay type: in vivo, Sprague-Dawley rats
Method: Cardiomyocyte apoptosis. Immunochemical detection of apoptotic cells was performed using the terminal deoxynucleotidyl transferase-medicated dUTP nick-end labeling (TUNEL) method. Malik et al. […] The sections were incubated with mouse monoclonal antibody recognizing cardiac myosin heavy chain to specifically detect apoptotic cardiomyocytes. The fluorescence staining was viewed with a confocal laser microscope. The number of apoptotic cells was counted and expressed as a percent of the total myocyte population. At the end of each experiment the hearts were either subjected to TTC staining to determine infarct size or TUNEL staining to detect apoptosis.

[1] = tested on: miRNA expression, rat heart; assay: Global miRNA expression profiling (TLDA array) in ischemia-reperfused rat heart; details: for miR-21 expression, up: vs basal level control heart
Method: Global miRNA expression profiling in ischemia-reperfused rat heart. MicroRNA profiles were analyzed by TLDA array specific for 586 miRNA and five endogeneous control for rat.
Male Sprague-Dawley rats weighing between 250 and 300 g were fed ad libitum regular rat chow with free access to water until the start of the experimental procedure.
Micro RNA isolation and cDNA preparation. Total RNA from rat heart samples were isolated using Trizol reagent (Invitrogen) and further purified using mirVANA miRNA isolation kit (Ambion).
Profiling of miRNA expression. miRNA expression profiling were carried out using quantitative real-time PCR method by TaqManH Gene Signature Rodent Arrays on a 384 well micro fluidic card in 7900HT Realtime PCR machine (Applied Biosystem, Foster City) according to manufacturer's recommendation. Each miRNA were quantified by two specific amplicon primers and one specific probe. […] In addition, each array contains six control assays—five carefully selected candidate endogenous control assays, and one negative control assay.
Analyses of miRNA gene expression data. Realtime PCR data expressed as Ct values from array A and B were combined using R script (provided by GeneSpring Informatics Support Team) and processed using GeneSpringGX 11.0.2 software (Agilent Technologies, Santa Clara).

reactive oxygen species = assay: Intracellular ROS by CM-H2DCFDA fluorescence in I/R heart; assay type: in vivo, rat; details: IR heart, FIG. 19
Method: The dye was injected intravenously, prior to induction of ischemia/reperfusion, and at the end of the experiments, the level of fluorescence was determined for the generation of ROS by measuring the fluorescent oxidation product CM-DCF in the cytosol, at an excitation wavelength of 480 nm and an emission wavelength of 520 nm.

[2] = tested on: isolated perfused rat hearts; assay: Myocardial infarct size, TTC staining (Example 6); assay type: in vivo, Sprague-Dawley rats
Method: Infarct size estimation. Infarct size was measured using the triphenyl tetrazolium chloride (TTC) staining method. Malik et al. […] After two hours of reperfusion, 40 ml of 1% (w/v) solution of TTC in phosphate buffer was infused into the aortic cannula, and the heart samples were stored at −70° C. for subsequent analysis. Sections (0.8 mm) of frozen heart were fixed in 2% paraformaldehyde, placed between two cover slips and digitally imaged using a Microtek ScanMaker 600z (Microtek, USA). To quantitate the areas of infarct in pixels, a standard National Institutes of Health image program was used. The infarct size was quantified and expressed in pixels. At the end of each experiment the hearts were either subjected to TTC staining to determine infarct size or TUNEL staining to detect apoptosis.

Oc1ccc(/C=C/c2cc(O)cc(O)c2)cc1 [resveratrol, 3,4′,5-trihydroxy-trans-stilbene]
cardiac output function (aortic flow, coronary flow, LVDP, LVmax dp/dt) (IR rat heart; 2 hour reperfusion): improved | myocardial infarct size and cardiomyocyte apoptosis (IR rat heart; 2 h reperfusion): reduce | genes with altered expression, treatment and calorie reduced diets, number (brain tissue): 10 genes | cardiomyocyte apoptosis (cardiomyocytes; 2.5 and 25 mg/kg): significantly reduced | number of apoptotic cardiomyocytes (cardiomyocytes; above 50 mg/kg): significant increased | principal component analysis of miRNA expression, IR treated samples ([1]; FIG. 15C): remarkably similar to BL vehicle sample | miR-21 expression, up ([1]; IR): 61.5 fold | miR-21 expression, up ([1]; basal level): 391.4 fold | miRNAs whose up or down regulation in IR control was reversed in the opposite direction ([1]; of the 25 miRNAs of Table 11, both treatments): 11 | intracellular ROS concentration compared to control (reactive oxygen species): lowered | myocardial infarct size ([2]; 2.5 and 25 mg/kg): significantly reduced | myocardial infarct size ([2]; above 50 mg/kg): significant increased
